Test results from patent US8183262B2, “Pyridine derivatives as mGluR2 antagonists” (Hoffmann-La Roche Inc., priority 2007, dated 2012).
pKi: −log10 of the molar value.

Columns and labels:
rat mGlu2 receptor = target: T1, rat mGlu2 receptor (Rattus norvegicus, UniProt P31421); experiment: [3H]-LY354740 binding on mGlu2 transfected CHO cell membranes; details: inhibition of 10 nM [3H]-LY354740 binding, membranes of CHO cells transfected with rat mGlu2, room temperature, 1 hour
T1 construct: expressed in transfected cells; membranes prepared
Method in brief: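 Membranes from CHO cells stably expressing rat mGlu2 (25 μg protein/ml) incubated 1 hour at room temperature with 10 nM [3H]-LY354740 and test compound in 50 mM Tris-HCl, 2 mM MgCl2, pH 7.4. Non-specific binding defined with 10 μM DCG IV; bound radioactivity counted after filtration. IC50 from four-parameter logistic fit.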

T1 sequence (P31421 19-872): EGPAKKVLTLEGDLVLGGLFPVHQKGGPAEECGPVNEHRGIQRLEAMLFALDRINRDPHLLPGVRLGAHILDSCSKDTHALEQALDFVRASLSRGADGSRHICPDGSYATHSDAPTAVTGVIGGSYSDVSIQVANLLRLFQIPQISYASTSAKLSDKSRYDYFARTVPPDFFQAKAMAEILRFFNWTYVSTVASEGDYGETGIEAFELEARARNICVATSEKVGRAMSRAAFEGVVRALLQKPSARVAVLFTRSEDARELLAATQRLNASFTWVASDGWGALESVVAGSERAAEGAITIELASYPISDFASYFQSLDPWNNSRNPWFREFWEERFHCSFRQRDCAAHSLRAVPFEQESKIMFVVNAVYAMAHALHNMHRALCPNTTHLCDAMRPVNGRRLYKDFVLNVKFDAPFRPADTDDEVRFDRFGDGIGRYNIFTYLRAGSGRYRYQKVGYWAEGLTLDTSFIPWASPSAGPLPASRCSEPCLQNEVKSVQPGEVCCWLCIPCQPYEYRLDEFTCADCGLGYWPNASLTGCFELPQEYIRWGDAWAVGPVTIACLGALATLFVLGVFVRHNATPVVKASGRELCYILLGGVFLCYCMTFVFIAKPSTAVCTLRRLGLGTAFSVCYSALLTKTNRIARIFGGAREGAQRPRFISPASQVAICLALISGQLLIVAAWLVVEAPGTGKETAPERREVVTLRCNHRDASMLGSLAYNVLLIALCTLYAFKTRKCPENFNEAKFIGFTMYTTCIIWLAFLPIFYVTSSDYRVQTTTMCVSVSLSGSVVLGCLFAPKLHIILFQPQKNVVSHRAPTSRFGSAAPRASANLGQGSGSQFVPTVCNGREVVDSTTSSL

Row | SMILES | pKi (rat mGlu2 receptor) | melting point [°C]
1 | NS(=O)(=O)c1cccc(-c2cccc(-c3nc(-c4ccc(F)cc4)cc(C(F)(F)F)n3)c2)c1 [Example 394, 3′-[4-(4-Fluoro-phenyl)-6-trifluoromethyl-pyrimidin-2-yl]-biphenyl-3-sulfonic acid amide] | 8.52 | 208
2 | Cc1cc(-c2ccc(C(F)(F)F)cc2)cc(-c2cccc(-c3cccc(S(=O)(=O)NCC(F)(F)F)c3)n2)n1 [Example 445, 3-[6′-Methyl-4′-(4-trifluoromethyl-phenyl)-[2,2′]bipyridinyl-6-yl]-N-(2,2,2-trifluoro-ethyl)-benzenesulfonamide] | 8.52 | 198
3 | CCOc1cc(-c2cc(C(F)(F)F)nc(-c3ccnc(-c4cccc(S(N)(=O)=O)c4)c3)n2)ccc1C(F)(F)F [Example 452, 3-{4-[4-(3-Ethoxy-4-trifluoromethyl-phenyl)-6-trifluoromethyl-pyrimidin-2-yl]-pyridin-2-yl}-benzenesulfonamide] | 7.80 | 223.5
